Laboratory results taken from ChEMBL document CHEMBL3638975, “Aminomethyl-4-imidazoles” (2013).

Target: Trace amine-associated receptor 1 (Mus musculus, UniProt Q923Y8)
Assay: Binding Assay: Radioligand binding assay: The radioligand [3H]-rac-2-(1,2,3,4-tetrahydro-1-naphthyl)-2-imidazoline was used at a concentration equal to the calculated Kd value of 60 nM to give a total binding at around 0.1% of the total added radioligand concentration, and a specific binding which represented approximately 70-80% of the total binding.

Sequence of Trace amine-associated receptor 1 (Q923Y8 whole entry): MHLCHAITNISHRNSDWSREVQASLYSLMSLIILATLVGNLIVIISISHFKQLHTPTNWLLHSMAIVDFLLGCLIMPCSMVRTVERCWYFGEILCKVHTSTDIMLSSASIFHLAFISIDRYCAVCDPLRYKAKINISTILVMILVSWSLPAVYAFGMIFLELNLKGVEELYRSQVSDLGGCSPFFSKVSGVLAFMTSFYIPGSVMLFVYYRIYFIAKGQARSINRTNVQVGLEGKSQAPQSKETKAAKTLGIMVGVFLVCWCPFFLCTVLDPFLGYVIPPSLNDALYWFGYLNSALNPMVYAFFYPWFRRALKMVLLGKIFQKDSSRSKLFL

Row | Ki [nM] | SMILES
1 | 2.9 | CN(Cc1cnc[nH]1)c1cccc(F)c1
2 | 7.2 | CCN(Cc1cnc[nH]1)c1ccc(CCc2ccc(Cl)cc2)cc1
